Positions of bridges follow the written chain, without caps; N, C: chain ends. Non-standard residues stand in square brackets, D forms with d. Residues, ends and D or L forms follow the SMILES beside them. *: point of attachment. Cbz = O=C(OCc1ccccc1)*; Dap = NC[C@H](N)C(=O)O
Tests used:
Substance-K receptor = target: T1, Substance-K receptor (Mesocricetus auratus, UniProt P51144); test: Binding affinity towards Tachykinin receptor 2 using [125I]iodohistidyl-NKA (0.1 nM)) as radioligand; set-up: species or system Cricetulus griseus
T1 sequence (P51144 whole entry): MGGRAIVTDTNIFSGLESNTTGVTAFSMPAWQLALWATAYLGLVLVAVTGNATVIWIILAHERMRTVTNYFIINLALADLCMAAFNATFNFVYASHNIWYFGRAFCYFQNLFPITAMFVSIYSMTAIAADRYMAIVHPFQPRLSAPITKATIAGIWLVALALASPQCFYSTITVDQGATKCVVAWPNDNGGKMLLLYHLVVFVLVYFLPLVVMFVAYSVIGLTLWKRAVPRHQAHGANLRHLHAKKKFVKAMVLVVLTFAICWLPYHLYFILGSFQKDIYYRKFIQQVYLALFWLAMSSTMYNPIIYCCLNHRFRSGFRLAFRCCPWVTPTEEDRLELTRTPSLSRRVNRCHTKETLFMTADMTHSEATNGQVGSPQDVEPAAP

Neuromedin-K receptor = target: T2, Neuromedin-K receptor (Homo sapiens, UniProt P29371); test: Binding affinity towards Tachykinin receptor 3 using [125I]-[Mephe7] NKB as radioligand
T2 sequence (P29371 whole entry): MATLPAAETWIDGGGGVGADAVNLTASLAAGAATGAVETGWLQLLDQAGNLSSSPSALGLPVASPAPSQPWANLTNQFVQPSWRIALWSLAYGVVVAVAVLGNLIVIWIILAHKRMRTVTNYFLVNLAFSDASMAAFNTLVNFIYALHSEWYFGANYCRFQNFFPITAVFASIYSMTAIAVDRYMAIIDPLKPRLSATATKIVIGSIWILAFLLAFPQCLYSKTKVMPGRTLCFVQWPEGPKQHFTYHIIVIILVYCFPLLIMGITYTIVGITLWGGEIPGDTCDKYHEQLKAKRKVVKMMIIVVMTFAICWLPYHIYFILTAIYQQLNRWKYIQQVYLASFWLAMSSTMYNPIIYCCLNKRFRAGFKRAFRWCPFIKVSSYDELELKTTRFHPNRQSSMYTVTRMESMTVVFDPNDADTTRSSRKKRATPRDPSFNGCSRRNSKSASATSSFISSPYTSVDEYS

IC50 (Substance-K receptor) [µM]	IC50 (Neuromedin-K receptor) [µM]	Compound
> 10		O=C(Cc1c[nH]c2ccccc12)N1CCC(Cc2ccccc2)C1 (stereo unspecified)
19.8		Ac-LMQWFG-OH
	9.4	O=C(Cc1ccccc1)N1CCC(Cc2ccccc2)C1 (stereo unspecified)
5.2	9.3	NC(=O)[C@H](Cc1ccccc1)NC(=O)[C@H](Cc1c[nH]c2ccccc12)NC(=O)OCc1ccccc1 (Cbz-Trp-Phe-NH2)
> 10		CSCC[C@@H]1NC(=O)[C@H](CC(C)C)NC(=O)[C@@H]2CNC(=O)C[C@H](NC1=O)C(=O)N[C@@H](Cc1c[nH]c3ccccc13)C(=O)N[C@@H](Cc1ccccc1)C(=O)N2 (cyclo(DWF[Dap]LM); lactam 1-4)

— ChEMBL document CHEMBL1128762, “The design of polar -turn dipeptide mimetics” (Bioorg Med Chem Lett, 1995)
